Experiments:
SuSy3-haplotype#9 = system: T1, SuSy3-haplotype#9; assay: sucrose cleavage; UDP-glucose quantified by UDP-glucose dehydrogenase / NADH; Michaelis-Menten fit; type: biochemical, Solanum arcanum; conditions: 4 mM UDP, 20 mM HEPES pH 7.5, 25 °C; IMAC-purified
T1 construct: natural wild-species haplotype, full length (805 aa), in pDR195, expressed in Saccharomyces cerevisiae 22574d, IEX- and IMAC-purified; equals S. lycopersicum SuSy3 haplotype#1 with S53A/S106I/E727D/K741E (natural differences)
Text: sucrose cleavage; UDP-glucose quantified by UDP-glucose dehydrogenase / NADH; Michaelis-Menten fit on SuSy3-haplotype#9

SuSy3-haplotype#10 = system: T2, SuSy3-haplotype#10; assay: as above; type: biochemical, Solanum neorickii; conditions: 4 mM UDP, 20 mM HEPES pH 7.5, 25 °C; IEX-purified only (lower purity)
T2 construct: natural wild-species haplotype, full length (805 aa), in pDR195, expressed in Saccharomyces cerevisiae 22574d, IEX-purified only; equals S. lycopersicum SuSy3 haplotype#1 with S53A/S106I/Q349L/E727D/K741E (natural differences)
Text: sucrose cleavage; UDP-glucose quantified by UDP-glucose dehydrogenase / NADH; Michaelis-Menten fit on SuSy3-haplotype#10

Km (SuSy3-haplotype#9): 33 ± 9 mM | Km (SuSy3-haplotype#10): 58 ± 14 mM
Structure (SMILES): OC[C@H]1O[C@@](CO)(O[C@H]2O[C@H](CO)[C@@H](O)[C@H](O)[C@H]2O)[C@@H](O)[C@@H]1O [sucrose]
